Data: patent US20150105252A1, “SUBSTITUTED PYRAZOLES AS HERBICIDES” (E I DU PONT DE NEMOURS AND COMPANY, priority 2013, published 2015)

How the values were obtained:
galium = test: Test C preemergence; assay type: in vivo, Galium aparine
Method in brief: (§1)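 Greenhouse pot test: preemergence application onto freshly seeded loam/sand mix, postemergence application onto seedlings (1–4 leaves, 2–18 cm) in peat-vermiculite substrate. Responses scored visually 13 to 15 days later relative to controls, where 0 means no effect and 100 means complete control; a dash indicates no result.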

corn [1] = test: Test A postemergence; assay type: in vivo, Zea mays
Method in brief: (§2)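 Both timings tested concurrently in loam/sand soil: preemergence by directed soil spray, postemergence on plants of 2–10 cm at the one- to two-leaf stage. Greenhouse holding period was approximately 10 days before visual injury assessment (0–100, 0 = no effect).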

soybean = test: Test C preemergence; assay type: in vivo, Glycine max
Description: (§3) Seeds of plant species selected from blackgrass (Alopecurus myosuroides), ryegrass, Italian (Italian ryegrass, Lolium multiflorum), wheat (winter wheat, Triticum aestivum), galium (catchweed bedstraw, Galium aparine), corn (Zea mays), crabgrass, large (large crabgrass, Digitaria sanguinalis), foxtail, giant (giant foxtail, Setaria faberii), johnsongrass (Sorghum halepense), lambsquarters (Chenopodium album), morningglory (Ipomoea coccinea), nutsedge, yellow (yellow nutsedge, Cyperus esculentus), pigweed (redroot pigweed, Amaranthus retroflexus), ragweed (common ragweed, Ambrosia elation), soybean (Glycine max), barnyardgrass (Echinochloa crus-galli), oilseed rape (Brassica napus), waterhemp (common waterhemp, Amaranthus rudis), oat, wild (wild oat, Avena fatua), kochia (Kochia scoparia), Surinam grass (Brachiaria decumbens), foxtail, green (green foxtail, Setaria viridis), goosegrass (Eleusine indica), bromegrass, downy (downy bromegrass, Bromus tectorum), nightshade (eastern black nightshade, Solanum ptycanthum), cocklebur (common cocklebur, Xanthium strumarium), cupgrass, woolly (woolly cupgrass, Eriochloa villosa), bermudagrass (Cynodon dactylon), sunflower, (common oilseed sunflower, Helianthus annuus), Russian thistle (Salsola kali), and velvetleaf (Abutilon theophrasti) were planted into a blend of loam soil and sand and treated preemergence with test chemicals formulated in a non-phytotoxic solvent mixture which included a surfactant.
(§4) At the same time, plants selected from these crop and weed species and also chickweed (common chickweed, Stellaria media), canarygrass (littleseed canarygrass, Phalaris minor), and deadnettle (henbit deadnettle, Lamium amplexicaule), were planted in pots containing Redi-Earth® planting medium (Scotts Company, 14111 Scottslawn Road, Marysville, Ohio 43041) comprising spaghnum peat moss, vermiculite, wetting agent and starter nutrients and treated with postemergence applications of test chemicals formulated in the same manner. Plants ranged in height from 2 to 18 cm (1- to 4-leaf stage) for postemergence treatments. Treated plants and controls were maintained in a greenhouse for 13 to 15 days, after which time all species were compared to controls and visually evaluated. Plant response ratings, summarized in Table C, are based on a scale of 0 to 100 where 0 is no effect and 100 is complete control. A dash (-) response means no test result.

velvetleaf [2] = test: Test C preemergence; assay type: in vivo, Abutilon theophrasti
Description: as §3, §4

blackgrass = test: Test C preemergence; assay type: in vivo, Alopecurus myosuroides
Method in brief: as §1

wheat = test: Test C preemergence; assay type: in vivo, Triticum aestivum
Method in brief: as §1

barnyardgrass [3] = test: Test A preemergence; assay type: in vivo, Echinochloa crus-galli; conditions: preemergence
Method in brief: as §2

johnsongrass = test: Test C preemergence; assay type: in vivo, Sorghum halepense
Method in brief: as §1

barnyardgrass [4] = test: Test C preemergence; assay type: in vivo, Echinochloa crus-galli
Description: as §3, §4

ryegrass, Italian = test: Test C preemergence; assay type: in vivo, Lolium multiflorum
Description: as §3, §4

pigweed = test: Test C preemergence; assay type: in vivo, Amaranthus retroflexus
Description: as §3, §4

corn [5] = test: Test C preemergence; assay type: in vivo, Zea mays
Method in brief: as §1

velvetleaf [6] = test: Test A postemergence; assay type: in vivo, Abutilon theophrasti
Method in brief: as §2

crabgrass, large = test: Test A postemergence; assay type: in vivo, Digitaria sanguinalis
Method in brief: as §2

oilseed rape = test: Test C preemergence; assay type: in vivo, Brassica napus
Method in brief: as §1

[7] = preemergence, 31 g ai/ha, visual rating, scale 0 to 100 (0 no effect, 100 complete control), 13 to 15 days
[8] = preemergence, 62 g ai/ha, 13 to 15 days, scale 0 to 100, 0 = no effect, 100 = complete control
[9] = preemergence, 125 g ai/ha, scale 0 to 100, 0 is no effect, 100 is complete control
[10] = Postemergence, 500 g ai/ha, visual rating after approx. 10 days, 0 to 100 scale (0 no effect, 100 complete control)
[11] = postemergence, 125 g ai/ha, about 10 days, visual rating on 0 to 100 scale (0 no effect, 100 complete control)

CCCc1cc(C(=O)NCC)nn1Cc1ccnc(C(F)(F)F)c1 [Compound 95]
Plant response rating (scale of 0 to 100), Galium (galium; Preemergence, 250 g ai/ha): 100 | Galium plant response rating (galium; [7]): 100 | Plant response rating, Galium (galium; [8]): 100 | Galium plant response rating (galium; [9]): 100 | Corn plant response rating (corn [1]; [10]): 100 | Corn plant response rating (corn [1]; [11]): 80 | Plant response rating (scale of 0 to 100), Soybean (soybean; Preemergence, 250 g ai/ha): 98 | Soybean plant response rating (soybean; [7]): 80 | Plant response rating, Soybean (soybean; [8]): 90 | Soybean plant response rating (soybean; [9]): 95 | Plant response rating (scale of 0 to 100), Velvetleaf (velvetleaf [2]; Preemergence, 250 g ai/ha): 100 | Velvetleaf plant response rating (velvetleaf [2]; [7]): 50 | Plant response rating, Velvetleaf (velvetleaf [2]; [8]): 100 | Velvetleaf plant response rating (velvetleaf [2]; [9]): 100 | Plant response rating (scale of 0 to 100), Blackgrass (blackgrass; Preemergence, 250 g ai/ha): 100 | Blackgrass plant response rating (blackgrass; [7]): 100 | Plant response rating, Blackgrass (blackgrass; [8]): 100 | Blackgrass plant response rating (blackgrass; [9]): 100 | Plant response rating (scale of 0 to 100), Wheat (wheat; Preemergence, 250 g ai/ha): 90 | Wheat plant response rating (wheat; [7]): 5 | Plant response rating, Wheat (wheat; [8]): 55 | Wheat plant response rating (wheat; [9]): 60 | Barnyardgrass plant response rating (barnyardgrass [3]; 125 g ai/ha, visual injury, 0 to 100 scale, approx. 10 days): 100 | Barnyardgrass plant response rating (barnyardgrass [3]; 500 g ai/ha, visual injury after approx. 10 days, 0 to 100 scale (0 no effect, 100 complete control)): 100 | Plant response rating (scale of 0 to 100), Johnsongrass (johnsongrass; Preemergence, 250 g ai/ha): 100 | Johnsongrass plant response rating (johnsongrass; [7]): 60 | Plant response rating, Johnsongrass (johnsongrass; [8]): 85 | Johnsongrass plant response rating (johnsongrass; [9]): 95 | Plant response rating (scale of 0 to 100), Barnyardgrass (barnyardgrass [4]; Preemergence, 250 g ai/ha): 100 | Barnyardgrass plant response rating (barnyardgrass [4]; preemergence, 31 g ai/ha, scale 0 to 100 (0 no effect, 100 complete control), 13 to 15 days): 100 | Plant response rating, Barnyardgrass (barnyardgrass [4]; [8]): 100 | Barnyardgrass plant response rating (barnyardgrass [4]; [9]): 100 | Plant response rating (scale of 0 to 100), Ryegrass, Italian (ryegrass, Italian; Preemergence, 250 g ai/ha): 100 | Ryegrass, Italian plant response rating (ryegrass, Italian; [7]): 50 | Plant response rating, Ryegrass, Italian (ryegrass, Italian; [8]): 85 | Ryegrass, Italian plant response rating (ryegrass, Italian; [9]): 95 | Plant response rating (scale of 0 to 100), Pigweed (pigweed; Preemergence, 250 g ai/ha): 100 | Pigweed plant response rating (pigweed; [7]): 100 | Plant response rating, Pigweed (pigweed; [8]): 100 | Pigweed plant response rating (pigweed; [9]): 100 | Plant response rating (scale of 0 to 100), Corn (corn [5]; Preemergence, 250 g ai/ha): 95 | Corn plant response rating (corn [5]; [7]): 35 | Plant response rating, Corn (corn [5]; [8]): 50 | Corn plant response rating (corn [5]; [9]): 80 | Velvetleaf plant response rating (velvetleaf [6]; [10]): 100 | Velvetleaf plant response rating (velvetleaf [6]; [11]): 90 | Crabgrass, Large plant response rating (crabgrass, large; [10]): 100 | Crabgrass, Large plant response rating (crabgrass, large; [11]): 90 | Plant response rating (scale of 0 to 100), Oilseed Rape (oilseed rape; Preemergence, 250 g ai/ha): 100 | Oilseed Rape plant response rating (oilseed rape; [7]): 100 | Plant response rating, Oilseed Rape (oilseed rape; [8]): 100 | Oilseed Rape plant response rating (oilseed rape; [9]): 100
